The values below come from the supplement of paper PMC11061612.

In assay [1] the test system is CAL-148 (Breast Carcinoma). Description: Bliss excess, mean over the matrix (fraction); higher = more synergy. Summed up: (§1)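 Cell lines grown in DMEM/F12 or RPMI with 10% FBS were plated in 1536-well plates and held 24 hours at 37°C, 5% CO2 before 72 hours of exposure to two-drug dose matrices, with DMSO typically at 0.2%. CellTiter-Glo 2.0 luminescence gave viability, which was converted to inhibition. Vehicle wells were set to 0 and blank wells to 1. Combination Emax is the second-highest inhibition in the matrix, and Bliss excess is the observed combination effect minus the expected EA + EB − EA·EB, where EA and EB are the single-agent effects.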

Assay [2] has as its system CCRF-CEM (T-Lymphoblastic Leukemia). Described as above. Put shortly: as §1
Assay [3] relates to CaR-1 (Colorectal Carcinoma). The assay is described as above. Summed up: as §1
Assay [4] has as its system DoTc2-4510 (Cervical Carcinoma). The description is as above. Put shortly:
as §1

In assay [5] the test system is HCC-78 (Lung Adenocarcinoma). The assay is described as above. Summed up:
as §1

Assay [6] has as its system HO-1-N-1 (Oral Cavity Carcinoma). The description is as above. Put shortly:
as §1

Assay [7] deals with HT-1376 (Bladder Carcinoma). Described as above. Summed up: as §1
The test system of the next assay is KELLY (Neuroblastoma). Described as above. Summed up: as §1
Assay [8] has as its system LB831-BLC (Bladder Carcinoma). Described as above. Summed up: as §1
Assay [9] concerns LS-180 (Colorectal Carcinoma). The description is as above. Summed up: as §1
The subject of assay [10] is ME-1 (Acute Myeloid Leukemia). Described as above. Summed up:
as §1

The test system of a further assay is NB10 (Neuroblastoma). The assay is described as above. Put shortly: as §1
Assay [11] deals with NCI-H82 (Small Cell Lung Carcinoma). The description is as above. Summed up:
as §1

Assay [12] relates to RO82-W-1 (Thyroid Gland Carcinoma). Described as above. Summed up:
as §1

Assay [13] relates to Ramos-2G6-4C10 (Burkitt's Lymphoma). The description is as above. Summed up:
as §1

The test system of assay [14] is TE-15 (Esophageal Squamous Cell Carcinoma). The assay is described as above. Put shortly:
as §1

The test system of the next assay is HOS (Osteosarcoma). Nature of the assay: combination Emax (second highest fraction inhibited in the dose matrix, 72 h); higher = more inhibition; extreme values may be limits of the assay. Summed up: as §1
In assay [15] the test system is LB831-BLC (Bladder Carcinoma). The assay is described as above. Put shortly:
as §1

For assay [16], the system named is LS-180 (Colorectal Carcinoma). The description is as above. Summed up:
as §1

Assay [17] concerns RO82-W-1 (Thyroid Gland Carcinoma). Described as above. Summed up: as §1
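Wherever Bliss excess, mean over the matrix is given: after 72 h of two-drug dosing.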

Consider `Cc1c2c(nn1C)CSCc1cc(n(C)n1)CSc1cc(c3ccccc3c1)OCCCc1c(C(=O)O)n(C)c3c-2c(Cl)ccc13` [AZD5991] + CS(=O)(=O)CCNCc1ccc(-c2ccc3ncnc(Nc4ccc(OCc5cccc(F)c5)c(Cl)c4)c3c2)o1 [Lapatinib] (first compound max 1 µM, 7x7, partner max 10 µM), for which the Bliss excess in assay [1] is 0.0041; in assay [2], -0.0676; in assay [3], 0.0071; in assay [4] it was -0.0004; in [5], -0.0167; in assay [6], 0.0972. The Bliss excess in [7] is -0.0102; in the assay with KELLY (Neuroblastoma), 0.0879; in [8], -0.0215; in assay [9] it was 0.0651; in assay [10] it was -0.0089; in the assay with NB10 (Neuroblastoma), -0.0197. In addition, the Bliss excess in [11] was -0.0161; in assay [12], -0.0357; in assay [13], 0.0153; in assay [14], -0.012. Moreover, the “combination Emax” value in the assay on HOS (Osteosarcoma) was 0.303; in assay [15] it was 0.55; in [16], 0.482; in assay [17] it was 0.141.

Regarding `Cc1c2c(nn1C)CSCc1cc(n(C)n1)CSc1cc(c3ccccc3c1)OCCCc1c(C(=O)O)n(C)c3c-2c(Cl)ccc13` [AZD5991] + Nc1ccn([C@@H]2O[C@H](CO)[C@@H](O)C2(F)F)c(=O)n1 [Gemcitabine] (first compound max 1 µM, 7x7, partner max 0.3 µM), the Bliss excess in assay [1] was 0.122; in [2], -0.0164; in assay [3] it was -0.0383; in assay [4], -0.0282; in [5], -0.0102; in assay [6] it was -0.0071. For the same compound, the Bliss excess in assay [7] is -0.03; in the assay with KELLY (Neuroblastoma), -0.0253; in [8] it was -0.0443; in assay [9] it was -0.061; in assay [10], -0.0612; in the assay with NB10 (Neuroblastoma) it was -0.0006. For the same compound, the Bliss excess was 0.003 in [11], -0.0453 in [12], 0.0162 in assay [13] and 0 in [14]. Besides, the “combination Emax” value in the assay with HOS (Osteosarcoma) amounted to 0.823; in assay [15], 0.677; in assay [16], 0.779; in assay [17] it was 0.0885.

Turning to `C[C@@H]1COCCN1c1cc(C2([S@](C)(=N)=O)CC2)nc(-c2ccnc3[nH]ccc23)n1` [AZD6738] + C1CC(C1)(C(=O)[O-])C(=O)[O-].N.N.[Pt+2] [Carboplatin] (first compound max 10 µM, 7x7, partner max 10 µM), the Bliss excess in [1] was -0.11; in [2], -0.0161; in [3], -0.0464; in [4] it was -0.0562; in assay [5], -0.0401; in assay [6], 0.0156. The Bliss excess in [7] was -0.039; with KELLY (Neuroblastoma) it was -0.0516; in assay [8], -0.051; in assay [9] it was 0.0068; in assay [10], -0.0565; with NB10 (Neuroblastoma) it was -0.0562. Further, the Bliss excess in assay [11] is -0.117; in assay [12], -0.0333; in assay [13], -0.0421; in assay [14], -0.0208. Also, the “combination Emax” value in the assay with HOS (Osteosarcoma) stood at 0.668; in [15], 0.39; in [16] it was 0.7; in assay [17], 0.151.

For the compound `C[C@@H]1COCCN1c1cc(C2([S@](C)(=N)=O)CC2)nc(-c2ccnc3[nH]ccc23)n1` [AZD6738] + Nc1ccn([C@@H]2O[C@H](CO)[C@@H](O)C2(F)F)c(=O)n1 [Gemcitabine] (first compound max 10 µM, 7x7, partner max 0.3 µM), the Bliss excess in [1] stood at 0.0914; in assay [2], 0.0838; in assay [3], 0.0538; in assay [4] it was 0.118; in [5] it was 0.067; in [6] it was 0.0528. Further, the Bliss excess in assay [7] is -0.0097; with KELLY (Neuroblastoma), -0.0042; in assay [8] it was 0.113; in [9], -0.0568; in assay [10], 0.0907; with NB10 (Neuroblastoma), 0.0622. Besides, the Bliss excess in assay [11] was -0.0333; in [12] it was -0.018; in assay [13] it was 0.15; in assay [14], 0.0378. The “combination Emax” value in the assay on HOS (Osteosarcoma) came out at 0.87; in assay [15], 0.9; in assay [16] it was 0.819; in [17], 0.223.

In the case of `Cc1cc2ncnn2cc1Nc1ncc2c(n1)n(C1CCOCC1)c(=O)n2C` [AZD7648] + COc1cc([C@@H]2c3cc4c(cc3[C@@H](O[C@@H]3O[C@@H]5CO[C@@H](C)O[C@H]5[C@H](O)[C@H]3O)[C@H]3COC(=O)[C@H]23)OCO4)cc(OC)c1O [Etoposide] (first compound max 10 µM, 7x7, partner max 10 µM), the Bliss excess stood at 0.163 in assay [1]; 0.104 in [2]; 0.0253 in assay [3]; 0.116 in [4]; 0.0695 in [5]; 0.23 in assay [6]. The Bliss excess in [7] is -0.0021; with KELLY (Neuroblastoma), 0.0734; in assay [8], 0.103; in [9], 0.0183; in assay [10] it was -0.0301; in the assay on NB10 (Neuroblastoma), 0.0154. Besides, the Bliss excess in assay [11] came to 0.0583; in assay [12] it was 0.0049; in assay [13], 0.0563; in assay [14] it was 0.0823. Besides, the “combination Emax” value amounted to 0.879 in the assay with HOS (Osteosarcoma), 0.836 in [15], 0.729 in assay [16] and 0.288 in assay [17].

`C[C@@H](Nc1cc(F)cc(F)c1)c1cc(C(=O)N(C)C)cc2c(=O)cc(N3CCOCC3)oc12` [AZD8186] + C1CN(CCC1(C(=O)N[C@@H](CCO)C2=CC=C(C=C2)Cl)N)C3=NC=NC4=C3C=CN4 [AZD5363] (first compound max 10 µM, 7x7, partner max 10 µM): the Bliss excess in assay [1] was -0.0019; in assay [2] it was 0.007; in [3], 0.0054; in [4], -0.0017; in [5], 0.0408; in [6], 0.0627. Also, the Bliss excess in assay [7] was -0.0404; in the assay on KELLY (Neuroblastoma), -0.0246; in [8], -0.0398; in assay [9] it was -0.0425; in assay [10], -0.052; in the assay on NB10 (Neuroblastoma), -0.0398. Besides, the Bliss excess in [11] was -0.0759; in assay [12] it was -0.0132; in [13], -0.0898; in [14], 0.0126. For the same compound, the “combination Emax” value in the assay on HOS (Osteosarcoma) came to 0.336; in assay [15], 0.442; in [16] it was 0.419; in [17] it was 0.201.

Regarding `N#Cc1cnc(Nc2cc(NC[C@H]3CNCCO3)c(C(F)(F)F)cn2)cn1` [SRA737] + CCc1c2c(nc3ccc(O)cc13)-c1cc3c(c(=O)n1C2)COC(=O)[C@]3(O)CC [SN-38] (first compound max 10 µM, 7x7, partner max 0.3 µM), the Bliss excess was -0.0602 in assay [1]; -0.034 in assay [2]; -0.0711 in assay [3]; 0.0093 in assay [4]; -0.0447 in assay [5]; -0.0022 in assay [6]. Besides, the Bliss excess in [7] is 0.0047; in the assay on KELLY (Neuroblastoma), -0.0429; in assay [8], 0.0497; in assay [10] it was 0.0352; in the assay with NB10 (Neuroblastoma) it was -0.141; in assay [11] it was 0.0325. Besides, the results for the Bliss excess in [12], in assay [13] and in assay [14] were -0.04, 0.135 and -0.0928, respectively. In addition, the “combination Emax” value in the assay with HOS (Osteosarcoma) was 0.849; in [15] it was 0.904; in [16] it was 0.74; in [17] it was 0.214.
